According to PMC6858927 (Investigational new drugs, 2019):
Read-outs that look alike come from different tables or passages of the source.

[1] = Cohort B Dose 2: 400mg, Decitabine (n=2), grade 3+
[2] = Cohort B dose 1: 200mg, Decitabine (n=6), Total
[3] = Cohort B dose 1: 200mg, Decitabine (n=6), grade 1&2
[4] = Cohort B dose 1: 200mg, Decitabine (n=6), grade 3+

C1=C/COCc2cc(ccc2OCCN2CCCC2)Nc2nccc(n2)-c2cccc(c2)COC/1 [Pacritinib, 11-(2-pyrrolidin-1-yl-ethoxy)-14,19-dioxa-5,7,26-triaza-tetracyclo[19.3.1.1(2,6). 1(8,12)]heptacosa-1(25),2(26),3,5,8,10,12(27),16,21,23-decaene]
HYPERTENSION, patients (%) [1]: 0 | HYPOALBUMINEMIA, patients (%) [1]: 0 | HYPOKALEMIA, patients (%) [1]: 1 (50) | HYPOPHOSPHATEMIA, patients (%) [1]: 0 | HYPOXIA, patients (%) [1]: 0 | LUNG INFECTION, patients (%) [1]: 0 | LYMPHOCYTE COUNT DECREASED, patients (%) [1]: 1 (50) | MUCOSITIS ORAL, patients (%) [1]: 0 | NAUSEA, patients (%) [1]: 1 (50) | NEUTROPHIL COUNT DECREASED, patients (%) [1]: 1 (50) | PLATELET COUNT DECREASED, patients (%) [1]: 1 (50) | PLEURAL EFFUSION, patients (%) [1]: 0 | PRURITUS, patients (%) [1]: 0 | RASH MACULO-PAPULAR, patients (%) [1]: 0 | RASH, patients (%) [1]: 0 | RESPIRATORY FAILURE, patients (%) [1]: 0 | VOMITING, patients (%) [1]: 0 | WHITE BLOOD CELL DECREASED, patients (%) [1]: 1 (50) | ACTIVATED PARTIAL THROMBOPLASTIN TIME PROLONGED, patients (%) [2]: 1 (16.7) | ANEMIA, patients (%) [2]: 6 (100) | ANOREXIA, patients (%) [2]: 2 (33.3) | CONSTIPATION, patients (%) [2]: 1 (16.7) | DIARRHEA, patients (%) [2]: 1 (16.7) | DYSPNEA, patients (%) [2]: 0 | EDEMA LIMBS, patients (%) [2]: 1 (16.7) | ELECTROCARDIOGRAM QT CORRECTED INTERVAL PROLONGED, patients (%) [2]: 2 (33.3) | FATIGUE, patients (%) [2]: 2 (33.3) | FEBRILE NEUTROPENIA, patients (%) [2]: 1 (16.7) | HYPERGLYCEMIA, patients (%) [2]: 1 (16.7) | HYPERTENSION, patients (%) [2]: 0 | HYPOALBUMINEMIA, patients (%) [2]: 1 (16.7) | HYPOKALEMIA, patients (%) [2]: 2 (33.3) | HYPOPHOSPHATEMIA, patients (%) [2]: 1 (16.7) | HYPOXIA, patients (%) [2]: 0 | LUNG INFECTION, patients (%) [2]: 1 (16.7) | LYMPHOCYTE COUNT DECREASED, patients (%) [2]: 3 (50) | MUCOSITIS ORAL, patients (%) [2]: 2 (33.3) | NAUSEA, patients (%) [2]: 3 (50) | NEUTROPHIL COUNT DECREASED, patients (%) [2]: 3 (50) | PLATELET COUNT DECREASED, patients (%) [2]: 5 (83.3) | PLEURAL EFFUSION, patients (%) [2]: 1 (16.7) | PRURITUS, patients (%) [2]: 0 | RASH MACULO-PAPULAR, patients (%) [2]: 0 | RASH, patients (%) [2]: 1 (16.7) | RESPIRATORY FAILURE, patients (%) [2]: 1 (16.7) | VOMITING, patients (%) [2]: 2 (33.3) | WHITE BLOOD CELL DECREASED, patients (%) [2]: 3 (50) | ACTIVATED PARTIAL THROMBOPLASTIN TIME PROLONGED, patients (%) [3]: 1 (16.7) | ANEMIA, patients (%) [3]: 1 (16.7) | ANOREXIA, patients (%) [3]: 2 (33.3) | CONSTIPATION, patients (%) [3]: 1 (16.7) | DIARRHEA, patients (%) [3]: 1 (16.7) | DYSPNEA, patients (%) [3]: 0 | EDEMA LIMBS, patients (%) [3]: 1 (16.7) | ELECTROCARDIOGRAM QT CORRECTED INTERVAL PROLONGED, patients (%) [3]: 1 (16.7) | FATIGUE, patients (%) [3]: 2 (33.3) | FEBRILE NEUTROPENIA, patients (%) [3]: 0 | HYPERGLYCEMIA, patients (%) [3]: 1 (16.7) | HYPERTENSION, patients (%) [3]: 0 | HYPOALBUMINEMIA, patients (%) [3]: 1 (16.7) | HYPOKALEMIA, patients (%) [3]: 2 (33.3) | HYPOPHOSPHATEMIA, patients (%) [3]: 0 | HYPOXIA, patients (%) [3]: 0 | LUNG INFECTION, patients (%) [3]: 0 | LYMPHOCYTE COUNT DECREASED, patients (%) [3]: 1 (16.7) | MUCOSITIS ORAL, patients (%) [3]: 1 (16.7) | NAUSEA, patients (%) [3]: 3 (50) | NEUTROPHIL COUNT DECREASED, patients (%) [3]: 0 | PLATELET COUNT DECREASED, patients (%) [3]: 0 | PLEURAL EFFUSION, patients (%) [3]: 1 (16.7) | PRURITUS, patients (%) [3]: 0 | RASH MACULO-PAPULAR, patients (%) [3]: 0 | RASH, patients (%) [3]: 1 (16.7) | RESPIRATORY FAILURE, patients (%) [3]: 0 | VOMITING, patients (%) [3]: 2 (33.3) | WHITE BLOOD CELL DECREASED, patients (%) [3]: 0 | ACTIVATED PARTIAL THROMBOPLASTIN TIME PROLONGED, patients (%) [4]: 0 | ANEMIA, patients (%) [4]: 5 (83.3) | ANOREXIA, patients (%) [4]: 0 | CONSTIPATION, patients (%) [4]: 0 | DIARRHEA, patients (%) [4]: 0 | DYSPNEA, patients (%) [4]: 0 | EDEMA LIMBS, patients (%) [4]: 0 | ELECTROCARDIOGRAM QT CORRECTED INTERVAL PROLONGED, patients (%) [4]: 1 (16.7) | FATIGUE, patients (%) [4]: 0 | FEBRILE NEUTROPENIA, patients (%) [4]: 1 (16.7) | HYPERGLYCEMIA, patients (%) [4]: 0 | HYPERTENSION, patients (%) [4]: 0 | HYPOALBUMINEMIA, patients (%) [4]: 0 | HYPOKALEMIA, patients (%) [4]: 0 | HYPOPHOSPHATEMIA, patients (%) [4]: 1 (16.7) | HYPOXIA, patients (%) [4]: 0 | LUNG INFECTION, patients (%) [4]: 1 (16.7) | LYMPHOCYTE COUNT DECREASED, patients (%) [4]: 2 (33.3) | MUCOSITIS ORAL, patients (%) [4]: 1 (16.7) | NAUSEA, patients (%) [4]: 0 | NEUTROPHIL COUNT DECREASED, patients (%) [4]: 3 (50) | PLATELET COUNT DECREASED, patients (%) [4]: 5 (83.3) | PLEURAL EFFUSION, patients (%) [4]: 0 | PRURITUS, patients (%) [4]: 0 | RASH MACULO-PAPULAR, patients (%) [4]: 0 | RASH, patients (%) [4]: 0 | RESPIRATORY FAILURE, patients (%) [4]: 1 (16.7) | VOMITING, patients (%) [4]: 0 | WHITE BLOOD CELL DECREASED, patients (%) [4]: 3 (50) | ACTIVATED PARTIAL THROMBOPLASTIN TIME PROLONGED, patients (%) (Overall (n=13), Total): 2 (15.4) | ANEMIA, patients (%) (Overall (n=13), Total): 11 (84.6) | ANOREXIA, patients (%) (Overall (n=13), Total): 2 (15.4) | CONSTIPATION, patients (%) (Overall (n=13), Total): 2 (15.4) | DIARRHEA, patients (%) (Overall (n=13), Total): 4 (30.8) | DYSPNEA, patients (%) (Overall (n=13), Total): 2 (15.4) | EDEMA LIMBS, patients (%) (Overall (n=13), Total): 2 (15.4) | ELECTROCARDIOGRAM QT CORRECTED INTERVAL PROLONGED, patients (%) (Overall (n=13), Total): 6 (46.2) | FATIGUE, patients (%) (Overall (n=13), Total): 5 (38.5) | HYPERTENSION, patients (%) (Overall (n=13), Total): 3 (23.1) | HYPOKALEMIA, patients (%) (Overall (n=13), Total): 4 (30.8) | LUNG INFECTION, patients (%) (Overall (n=13), Total): 2 (15.4) | LYMPHOCYTE COUNT DECREASED, patients (%) (Overall (n=13), Total): 7 (53.8) | MUCOSITIS ORAL, patients (%) (Overall (n=13), Total): 4 (30.8) | NAUSEA, patients (%) (Overall (n=13), Total): 7 (53.8) | RASH MACULO-PAPULAR, patients (%) (Overall (n=13), Total): 2 (15.4) | ACTIVATED PARTIAL THROMBOPLASTIN TIME PROLONGED, patients (%) (Overall (n=13), grade 1&2): 2 (15.4) | ANEMIA, patients (%) (Overall (n=13), grade 1&2): 2 (15.4) | ANOREXIA, patients (%) (Overall (n=13), grade 1&2): 2 (15.4) | CONSTIPATION, patients (%) (Overall (n=13), grade 1&2): 2 (15.4) | DIARRHEA, patients (%) (Overall (n=13), grade 1&2): 4 (30.8) | DYSPNEA, patients (%) (Overall (n=13), grade 1&2): 2 (15.4) | EDEMA LIMBS, patients (%) (Overall (n=13), grade 1&2): 2 (15.4) | ELECTROCARDIOGRAM QT CORRECTED INTERVAL PROLONGED, patients (%) (Overall (n=13), grade 1&2): 5 (38.5) | FATIGUE, patients (%) (Overall (n=13), grade 1&2): 5 (38.5) | LUNG INFECTION, patients (%) (Overall (n=13), grade 1&2): 0 | LUNG INFECTION, patients (%) (Overall (n=13), grade 3+): 2 (15.4) | ACTIVATED PARTIAL THROMBOPLASTIN TIME PROLONGED, patients (%) (human, in vivo): 0 | ANEMIA, patients (%) (human, in vivo): 9 (69.2) | ANOREXIA, patients (%) (human, in vivo): 0 | CONSTIPATION, patients (%) (human, in vivo): 0 | DIARRHEA, patients (%) (human, in vivo): 0 | DYSPNEA, patients (%) (human, in vivo): 0 | EDEMA LIMBS, patients (%) (human, in vivo): 0 | ELECTROCARDIOGRAM QT CORRECTED INTERVAL PROLONGED, patients (%) (human, in vivo): 1 (7.7) | FATIGUE, patients (%) (human, in vivo): 0 | RASH MACULO-PAPULAR, patients (%) (human, in vivo): 1 (7.7)
